Assay results published in ChEMBL document CHEMBL4507302, “Data for DCP probe TP-020” (2021).

Key:
[1] = target: Mitogen-activated protein kinase kinase kinase 7 (Homo sapiens) (UniProt O43318); settings: Compound concentration 1000.0 nM
[2] = target: Mitogen-activated protein kinase 3 (Homo sapiens) (UniProt P27361); settings: Compound concentration 1000.0 nM
[3] = system: Epidermal growth factor receptor (Homo sapiens), P00533 [UNDEFINED MUTATION]; settings: Compound concentration 1000.0 nM
[4] = target: Death-associated protein kinase 1 (Homo sapiens) (UniProt P53355); settings: Compound concentration 1000.0 nM
[5] = target: Rhodopsin kinase GRK7 (Homo sapiens) (UniProt Q8WTQ7); settings: Compound concentration 1000.0 nM
[6] = organism: Rattus norvegicus; settings: Compound concentration 10.0 uM
[7] = target: Calcium/calmodulin-dependent protein kinase type IV (Homo sapiens) (UniProt Q16566); settings: Compound concentration 1000.0 nM
[8] = target: Calcium-dependent protein kinase 1 (Plasmodium falciparum) (UniProt P62344); settings: Compound concentration 1000.0 nM
[9] = target: Serine/threonine-protein kinase PAK 6 (Homo sapiens) (UniProt Q9NQU5); settings: Compound concentration 1000.0 nM
[10] = target: Serine/threonine-protein kinase D2 (Homo sapiens) (UniProt Q9BZL6); settings: Compound concentration 1000.0 nM
[11] = target: Mitogen-activated protein kinase 10 (Homo sapiens) (UniProt P53779); settings: Compound concentration 1000.0 nM
[12] = target: Ribosomal protein S6 kinase alpha-3 (Homo sapiens) (UniProt P51812); settings: Compound concentration 1000.0 nM
[13] = target: Citron Rho-interacting kinase (Homo sapiens) (UniProt O14578); settings: Compound concentration 1000.0 nM
Sequence of Citron Rho-interacting kinase (Homo sapiens) (O14578 whole entry): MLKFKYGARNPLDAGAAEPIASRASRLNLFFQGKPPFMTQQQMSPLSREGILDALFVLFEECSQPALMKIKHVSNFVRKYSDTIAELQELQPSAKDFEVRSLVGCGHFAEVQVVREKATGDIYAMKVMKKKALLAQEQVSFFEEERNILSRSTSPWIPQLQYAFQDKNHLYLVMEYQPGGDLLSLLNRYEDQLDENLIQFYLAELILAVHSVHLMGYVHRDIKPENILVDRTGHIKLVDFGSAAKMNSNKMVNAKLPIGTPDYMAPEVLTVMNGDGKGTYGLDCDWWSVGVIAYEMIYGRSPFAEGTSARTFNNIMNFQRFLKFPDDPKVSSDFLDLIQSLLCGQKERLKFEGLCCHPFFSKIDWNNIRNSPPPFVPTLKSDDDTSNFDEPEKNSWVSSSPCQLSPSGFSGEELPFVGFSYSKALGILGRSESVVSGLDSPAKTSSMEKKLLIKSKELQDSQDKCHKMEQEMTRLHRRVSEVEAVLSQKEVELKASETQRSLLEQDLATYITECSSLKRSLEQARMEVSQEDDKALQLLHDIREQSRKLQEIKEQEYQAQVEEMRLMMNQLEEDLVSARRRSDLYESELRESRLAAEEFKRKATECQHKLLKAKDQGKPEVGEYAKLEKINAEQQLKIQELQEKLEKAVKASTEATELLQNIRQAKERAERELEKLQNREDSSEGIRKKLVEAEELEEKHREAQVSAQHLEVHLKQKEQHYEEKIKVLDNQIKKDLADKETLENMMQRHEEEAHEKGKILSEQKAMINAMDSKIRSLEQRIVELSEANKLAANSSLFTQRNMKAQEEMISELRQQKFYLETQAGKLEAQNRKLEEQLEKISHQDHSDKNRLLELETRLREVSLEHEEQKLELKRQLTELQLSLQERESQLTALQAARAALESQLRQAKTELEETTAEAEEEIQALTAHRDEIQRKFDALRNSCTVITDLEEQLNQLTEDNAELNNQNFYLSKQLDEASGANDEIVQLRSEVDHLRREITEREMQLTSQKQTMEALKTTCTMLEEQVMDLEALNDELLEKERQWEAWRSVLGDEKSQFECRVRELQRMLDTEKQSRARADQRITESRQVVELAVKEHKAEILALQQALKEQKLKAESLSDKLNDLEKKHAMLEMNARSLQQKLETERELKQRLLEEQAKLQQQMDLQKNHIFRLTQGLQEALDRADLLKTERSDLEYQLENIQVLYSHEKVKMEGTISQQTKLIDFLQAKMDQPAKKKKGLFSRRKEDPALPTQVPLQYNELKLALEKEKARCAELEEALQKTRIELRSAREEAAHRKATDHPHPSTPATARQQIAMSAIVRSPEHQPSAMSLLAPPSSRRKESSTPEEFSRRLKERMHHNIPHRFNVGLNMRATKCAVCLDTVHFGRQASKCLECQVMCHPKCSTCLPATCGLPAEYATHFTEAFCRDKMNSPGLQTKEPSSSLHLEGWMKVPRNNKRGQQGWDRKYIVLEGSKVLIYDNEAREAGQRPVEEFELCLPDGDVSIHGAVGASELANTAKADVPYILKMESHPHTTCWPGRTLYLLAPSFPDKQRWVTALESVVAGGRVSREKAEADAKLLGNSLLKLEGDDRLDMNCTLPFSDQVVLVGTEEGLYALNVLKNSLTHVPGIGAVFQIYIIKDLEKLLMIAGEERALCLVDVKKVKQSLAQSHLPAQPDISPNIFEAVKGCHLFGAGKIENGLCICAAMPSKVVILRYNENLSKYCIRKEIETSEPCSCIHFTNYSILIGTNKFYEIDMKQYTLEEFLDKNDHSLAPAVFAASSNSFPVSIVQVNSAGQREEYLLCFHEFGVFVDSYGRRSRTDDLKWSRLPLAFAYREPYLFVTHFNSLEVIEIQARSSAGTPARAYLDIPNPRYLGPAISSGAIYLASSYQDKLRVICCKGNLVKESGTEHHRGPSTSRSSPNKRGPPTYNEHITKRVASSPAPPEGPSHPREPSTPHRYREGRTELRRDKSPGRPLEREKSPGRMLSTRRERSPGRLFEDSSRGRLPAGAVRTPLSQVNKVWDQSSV

[14] = target: NUAK family SNF1-like kinase 1 (Homo sapiens) (UniProt O60285); settings: Compound concentration 1000.0 nM
[15] = target: Serine/threonine-protein kinase 35 (Homo sapiens) (UniProt Q8TDR2); settings: Compound concentration 1000.0 nM
Sequence of Serine/threonine-protein kinase 35 (Homo sapiens) (Q8TDR2 whole entry): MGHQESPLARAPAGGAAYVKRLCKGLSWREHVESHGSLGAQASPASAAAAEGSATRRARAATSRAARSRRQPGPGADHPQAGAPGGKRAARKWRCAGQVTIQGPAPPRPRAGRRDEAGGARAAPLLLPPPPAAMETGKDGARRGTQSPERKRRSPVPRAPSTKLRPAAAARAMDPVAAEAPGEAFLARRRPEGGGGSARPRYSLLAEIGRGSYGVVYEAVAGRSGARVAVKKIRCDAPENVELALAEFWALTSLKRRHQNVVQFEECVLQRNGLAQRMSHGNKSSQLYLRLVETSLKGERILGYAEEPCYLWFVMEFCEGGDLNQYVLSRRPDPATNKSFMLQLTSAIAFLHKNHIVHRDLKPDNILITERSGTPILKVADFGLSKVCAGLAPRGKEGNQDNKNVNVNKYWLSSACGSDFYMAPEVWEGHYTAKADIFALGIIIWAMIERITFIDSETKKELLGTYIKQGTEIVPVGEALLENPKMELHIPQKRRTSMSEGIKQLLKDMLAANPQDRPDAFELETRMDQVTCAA

[16] = target: MAP/microtubule affinity-regulating kinase 3 (Homo sapiens) (UniProt P27448); settings: Compound concentration 1000.0 nM
[17] = target: SRSF protein kinase 2 (Homo sapiens) (UniProt P78362); settings: Compound concentration 1000.0 nM
[18] = target: Phosphatidylinositol 4,5-bisphosphate 3-kinase catalytic subunit delta isoform (Homo sapiens) (UniProt O00329); settings: Compound concentration 1000.0 nM
Sequence of Phosphatidylinositol 4,5-bisphosphate 3-kinase catalytic subunit delta isoform (Homo sapiens) (O00329 whole entry, canonical isoform): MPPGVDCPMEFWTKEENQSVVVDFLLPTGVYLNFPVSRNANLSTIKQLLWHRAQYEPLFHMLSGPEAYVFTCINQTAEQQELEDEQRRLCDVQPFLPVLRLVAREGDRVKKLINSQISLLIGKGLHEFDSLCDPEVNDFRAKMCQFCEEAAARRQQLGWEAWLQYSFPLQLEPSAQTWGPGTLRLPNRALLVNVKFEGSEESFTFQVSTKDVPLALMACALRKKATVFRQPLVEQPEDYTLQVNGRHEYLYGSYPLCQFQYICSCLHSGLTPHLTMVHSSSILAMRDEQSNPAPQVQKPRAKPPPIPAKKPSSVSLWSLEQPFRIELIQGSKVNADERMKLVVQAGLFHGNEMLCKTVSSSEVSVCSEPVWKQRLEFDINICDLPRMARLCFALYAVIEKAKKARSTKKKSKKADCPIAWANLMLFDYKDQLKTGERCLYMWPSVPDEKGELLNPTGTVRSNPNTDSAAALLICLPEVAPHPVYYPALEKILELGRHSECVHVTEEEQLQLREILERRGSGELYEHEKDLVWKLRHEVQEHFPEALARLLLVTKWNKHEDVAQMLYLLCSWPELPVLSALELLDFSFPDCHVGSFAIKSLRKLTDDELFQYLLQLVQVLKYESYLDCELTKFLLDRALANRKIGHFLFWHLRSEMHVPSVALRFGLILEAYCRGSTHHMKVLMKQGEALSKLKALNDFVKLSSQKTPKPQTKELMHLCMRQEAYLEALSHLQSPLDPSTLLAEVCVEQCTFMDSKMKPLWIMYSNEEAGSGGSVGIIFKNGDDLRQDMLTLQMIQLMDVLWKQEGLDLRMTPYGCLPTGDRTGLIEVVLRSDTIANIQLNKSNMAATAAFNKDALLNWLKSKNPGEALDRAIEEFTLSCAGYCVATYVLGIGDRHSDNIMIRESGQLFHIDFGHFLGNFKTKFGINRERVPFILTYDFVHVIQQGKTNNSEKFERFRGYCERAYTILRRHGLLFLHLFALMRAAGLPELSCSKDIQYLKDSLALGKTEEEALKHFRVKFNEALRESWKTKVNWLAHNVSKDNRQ

[19] = target: Peripheral plasma membrane protein CASK (Homo sapiens) (UniProt O14936); settings: Compound concentration 1000.0 nM
[20] = target: Ribosomal protein S6 kinase alpha-1 (Homo sapiens) (UniProt Q15418); settings: Compound concentration 1000.0 nM
[21] = target: Serine/threonine-protein kinase ICK (Homo sapiens) (UniProt Q9UPZ9); settings: Compound concentration 1000.0 nM
[22] = system: ALK tyrosine kinase receptor (Homo sapiens), Q9UM73 [C1156Y]; settings: Compound concentration 1000.0 nM
[23] = target: Inhibitor of nuclear factor kappa-B kinase subunit beta (Homo sapiens) (UniProt O14920); settings: Compound concentration 1000.0 nM
[24] = target: Serine/threonine-protein kinase Chk2 (Homo sapiens) (UniProt O96017); settings: Compound concentration 1000.0 nM
[25] = target: Serine/threonine-protein kinase N2 (Homo sapiens) (UniProt Q16513); settings: Compound concentration 1000.0 nM
[26] = target: Tyrosine-protein kinase Fes/Fps (Homo sapiens) (UniProt P07332); settings: Compound concentration 1000.0 nM
Sequence of Tyrosine-protein kinase Fes/Fps (Homo sapiens) (P07332 whole entry): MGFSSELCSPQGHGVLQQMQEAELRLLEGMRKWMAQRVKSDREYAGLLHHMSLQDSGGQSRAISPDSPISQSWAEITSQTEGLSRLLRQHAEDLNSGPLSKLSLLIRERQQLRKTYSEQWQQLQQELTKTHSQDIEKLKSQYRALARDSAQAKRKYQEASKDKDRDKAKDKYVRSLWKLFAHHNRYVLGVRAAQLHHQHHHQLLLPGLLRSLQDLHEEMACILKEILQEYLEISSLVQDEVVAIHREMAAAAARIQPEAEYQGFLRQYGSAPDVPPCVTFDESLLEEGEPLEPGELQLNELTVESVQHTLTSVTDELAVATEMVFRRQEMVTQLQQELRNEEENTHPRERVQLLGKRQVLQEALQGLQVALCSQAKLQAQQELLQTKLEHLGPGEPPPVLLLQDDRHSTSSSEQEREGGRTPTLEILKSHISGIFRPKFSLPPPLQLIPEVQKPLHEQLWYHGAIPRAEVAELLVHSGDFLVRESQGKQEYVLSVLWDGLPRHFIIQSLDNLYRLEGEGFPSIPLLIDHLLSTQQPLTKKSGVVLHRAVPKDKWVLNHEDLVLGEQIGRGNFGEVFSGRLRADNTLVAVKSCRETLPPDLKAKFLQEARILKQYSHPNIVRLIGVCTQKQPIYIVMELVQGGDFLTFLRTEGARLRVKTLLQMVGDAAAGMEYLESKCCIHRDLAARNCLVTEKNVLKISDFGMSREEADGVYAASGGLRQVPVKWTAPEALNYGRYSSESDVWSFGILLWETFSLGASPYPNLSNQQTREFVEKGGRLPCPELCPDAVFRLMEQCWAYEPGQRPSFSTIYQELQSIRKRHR

[27] = system: Epidermal growth factor receptor (Homo sapiens), P00533 [T790M]; settings: Compound concentration 1000.0 nM
[28] = target: Proto-oncogene tyrosine-protein kinase Src (Homo sapiens) (UniProt P12931); settings: Compound concentration 1000.0 nM
[29] = target: Atypical kinase COQ8B, mitochondrial (Homo sapiens) (UniProt Q96D53); settings: Compound concentration 1000.0 nM
[30] = system: Phosphatidylinositol 4,5-bisphosphate 3-kinase catalytic subunit alpha isoform (Homo sapiens), P42336 [I800L]; settings: Compound concentration 1000.0 nM
[31] = target: Insulin receptor-related protein (Homo sapiens) (UniProt P14616); settings: Compound concentration 1000.0 nM
[32] = target: Tyrosine-protein kinase Mer (Homo sapiens) (UniProt Q12866); settings: Compound concentration 1000.0 nM
[33] = target: Casein kinase I isoform alpha-like (Homo sapiens) (UniProt Q8N752); settings: Compound concentration 1000.0 nM
[34] = target: RAF proto-oncogene serine/threonine-protein kinase (Homo sapiens) (UniProt P04049); settings: Compound concentration 1000.0 nM
[35] = target: Phosphorylase b kinase gamma catalytic chain, skeletal muscle/heart isoform (Homo sapiens) (UniProt Q16816); settings: Compound concentration 1000.0 nM
Sequence of Phosphorylase b kinase gamma catalytic chain, skeletal muscle/heart isoform (Homo sapiens) (Q16816 whole entry, looked up, canonical isoform): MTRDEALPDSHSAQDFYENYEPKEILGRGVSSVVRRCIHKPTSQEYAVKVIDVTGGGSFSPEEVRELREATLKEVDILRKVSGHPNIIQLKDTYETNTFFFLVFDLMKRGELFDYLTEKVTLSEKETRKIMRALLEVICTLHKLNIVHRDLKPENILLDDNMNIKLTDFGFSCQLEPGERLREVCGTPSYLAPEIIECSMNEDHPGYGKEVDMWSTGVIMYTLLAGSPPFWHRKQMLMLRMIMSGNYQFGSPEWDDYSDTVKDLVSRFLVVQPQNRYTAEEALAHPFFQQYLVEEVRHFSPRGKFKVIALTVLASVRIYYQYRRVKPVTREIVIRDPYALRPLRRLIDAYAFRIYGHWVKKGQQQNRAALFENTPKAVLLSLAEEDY

[36] = target: Dual specificity mitogen-activated protein kinase kinase 3 (Homo sapiens) (UniProt P46734); settings: Compound concentration 1000.0 nM
[37] = system: Tyrosine-protein kinase ABL1 (Homo sapiens), P00519 [T315I]; settings: Compound concentration 1000.0 nM
[38] = target: Serine/threonine-protein kinase 32B (Homo sapiens) (UniProt Q9NY57); settings: Compound concentration 1000.0 nM
[39] = target: Serine/threonine-protein kinase PLK3 (Homo sapiens) (UniProt Q9H4B4); settings: Compound concentration 1000.0 nM
[40] = system: Tyrosine-protein kinase ABL1 (Homo sapiens), P00519 [Q252H]; settings: Compound concentration 1000.0 nM
[41] = target: Serine/threonine-protein kinase Nek10 (Homo sapiens) (UniProt Q6ZWH5); settings: Compound concentration 1000.0 nM
[42] = target: Casein kinase I isoform alpha (Homo sapiens) (UniProt P48729); settings: Compound concentration 1000.0 nM
[43] = system: Receptor-type tyrosine-protein kinase FLT3 (Homo sapiens), P36888 [D835H]; settings: Compound concentration 1000.0 nM
[44] = target: Beta-adrenergic receptor kinase 1 (Homo sapiens) (UniProt P25098); settings: Compound concentration 1000.0 nM
[45] = target: Eukaryotic translation initiation factor 2-alpha kinase 1 (Homo sapiens) (UniProt Q9BQI3); settings: Compound concentration 1000.0 nM

For `Nc1cnc(N2CCc3cc(S(=O)(=O)Nc4c(F)cc(Cl)cc4F)cc(N4CCCC4=O)c32)nc1`, which residual activity [1] is on record?
The residual activity was 100%.

And the residual activity [2]?
The residual activity was 91%.

What about the residual activity [3] of the same compound?
Its residual activity is 74%.

What about the residual activity [4] of the same compound?
The residual activity was 100%.

What about the residual activity [5] of the same compound?
The residual activity was 99%.

And the inhibition [6]?
The inhibition was -2.65%.

What about the residual activity [7] of the same compound?
Its residual activity is 96%.

What about the residual activity [8] of the same compound?
Its residual activity is 97%.

And the residual activity [9]?
Its residual activity is 100%.

And the residual activity [10]?
The residual activity was 100%.

What about the residual activity [11] of the same compound?
The residual activity was 94%.

And the residual activity [12]?
Its residual activity is 100%.

What about the residual activity [13] of the same compound?
Its residual activity is 91%.

And the residual activity [14]?
Its residual activity is 100%.

And the residual activity [15]?
Its residual activity is 100%.

What about the residual activity [16] of the same compound?
The residual activity was 100%.

And the residual activity [17]?
The residual activity was 100%.

What about the residual activity [18] of the same compound?
Its residual activity is 88%.

What about the residual activity [19] of the same compound?
The residual activity was 94%.

What about the residual activity [20] of the same compound?
The residual activity was 100%.

And the residual activity [21]?
Its residual activity is 80%.

And the residual activity [22]?
Its residual activity is 100%.

What about the residual activity [23] of the same compound?
Its residual activity is 96%.

What about the residual activity [24] of the same compound?
The residual activity was 92%.

What about the residual activity [25] of the same compound?
The residual activity was 100%.

What about the residual activity [26] of the same compound?
Its residual activity is 100%.

And the residual activity [27]?
Its residual activity is 88%.

What about the residual activity [28] of the same compound?
Its residual activity is 99%.

And the residual activity [29]?
Its residual activity is 100%.

And the residual activity [30]?
Its residual activity is 80%.

And the residual activity [31]?
Its residual activity is 100%.

And the residual activity [32]?
Its residual activity is 100%.

What about the residual activity [33] of the same compound?
The residual activity was 100%.

And the residual activity [34]?
The residual activity was 79%.

And the residual activity [35]?
The residual activity was 71%.

And the residual activity [36]?
The residual activity was 100%.

What about the residual activity [37] of the same compound?
Its residual activity is 98%.

And the residual activity [38]?
The residual activity was 74%.

And the residual activity [39]?
Its residual activity is 100%.

And the residual activity [40]?
Its residual activity is 98%.

What about the residual activity [41] of the same compound?
The residual activity was 100%.

And the residual activity [42]?
The residual activity was 100%.

What about the residual activity [43] of the same compound?
The residual activity was 100%.

What about the residual activity [44] of the same compound?
Its residual activity is 100%.

What about the residual activity [45] of the same compound?
The residual activity was 94%.

What does the source list for `Cn1nc(C(F)(F)F)cc1-c1cnc(N2CCc3cc(S(=O)(=O)Nc4c(F)cc(Cl)cc4F)cc(N4CCCC4=O)c32)nc1` [TP-020]?
residual activity [1]: 79%; residual activity [2]: 100%; residual activity [3]: 100%; residual activity [4]: 96%; residual activity [5]: 85%; inhibition [6]: -9.93%; residual activity [7]: 100%; residual activity [8]: 70%; residual activity [9]: 100%; residual activity [10]: 95%; residual activity [11]: 100%; residual activity [12]: 99%; residual activity [13]: 100%; residual activity [14]: 89%; residual activity [15]: 100%; residual activity [16]: 12%; residual activity [17]: 34%; residual activity [18]: 84%; residual activity [19]: 77%; residual activity [20]: 96%; residual activity [21]: 84%; residual activity [22]: 72%; residual activity [23]: 81%; residual activity [24]: 100%; residual activity [25]: 82%; residual activity [26]: 100%; residual activity [27]: 94%; residual activity [28]: 100%; residual activity [29]: 100%; residual activity [30]: 77%; residual activity [31]: 90%; residual activity [32]: 100%; residual activity [33]: 100%; residual activity [34]: 100%; residual activity [35]: 98%; residual activity [36]: 82%; residual activity [37]: 82%; residual activity [38]: 95%; residual activity [39]: 79%; residual activity [40]: 99%; residual activity [41]: 80%; residual activity [42]: 86%; residual activity [43]: 100%; residual activity [44]: 85%; residual activity [45]: 100%
